Data: PMC10452110, “Indole-3-Acetamido-Polyamines as Antimicrobial Agents and Antibiotic Adjuvants” (Biomolecules, 2023)

Tests used:
[1] = system: Staphylococcus aureus (ATCC 25923); assay: Intrinsic antimicrobial activity (MIC) against S. aureus; format: cell-based; conditions: ATCC25923, S. aureus ATCC 25923, mean (n = 3), read-out: MIC S. a
Protocol: (§1) The susceptibility of bacterial strains Staphylococcus aureus (ATCC 25923), Escherichia coli (ATCC 25922) and Pseudomonas aeruginosa (ATCC 27853) to antibiotics and compounds was determined using previously reported protocols. Additional antimicrobial evaluation against MRSA (ATCC 43300), Klebsiella pneumoniae (ATCC 700603), Acinetobacter baumannii (ATCC 19606), Candida albicans (ATCC 90028) and Cryptococcus neoformans (ATCC 208821) was undertaken at the Community for Open Antimicrobial Drug Discovery at The University of Queensland (Australia) according to their standard protocols, as reported previously.

MRSA (ATCC 43300) = assay: Intrinsic antimicrobial activity (MIC) against MRSA; format: cell-based; conditions: Staphylococcus aureus, MRSA ATCC 43300; mean (n = 2); read-out: MIC MRSA
Protocol: as §1

[2] = system: Pseudomonas aeruginosa (ATCC 27853); assay: Intrinsic antimicrobial activity (MIC) against P. aeruginosa; format: cell-based; conditions: ATCC27853, P. aeruginosa ATCC 27853, mean (n = 3), read-out: MIC P. a
Protocol: as §1

[3] = system: Escherichia coli (ATCC 25922); assay: Intrinsic antimicrobial activity (MIC) against E. coli; format: cell-based; conditions: ATCC25922, E. coli ATCC 25922, mean (n = 3), read-out: MIC E. c
Protocol: as §1

[4] = system: Klebsiella pneumoniae (ATCC 700603); assay: Intrinsic antimicrobial activity (MIC) against K. pneumoniae; format: cell-based; conditions: ATCC700603, K. pneumoniae ATCC 700603, mean (n = 2), read-out: MIC K. p
Protocol: as §1

[5] = system: Acinetobacter baumannii (ATCC 19606); assay: Intrinsic antimicrobial activity (MIC) against A. baumannii; format: cell-based; conditions: ATCC19606, A. baumannii ATCC 19606, mean (n = 2), read-out: MIC A. b
Protocol: as §1

[6] = system: Candida albicans (ATCC 90028); assay: Intrinsic antifungal activity (MIC) against C. albicans; format: cell-based; conditions: ATCC90028, C. albicans ATCC 90028, mean (n = 2), read-out: MIC C. a
Protocol: as §1

[7] = system: Cryptococcus neoformans (ATCC 208821); assay: Intrinsic antifungal activity (MIC) against C. neoformans; format: cell-based; conditions: ATCC208821, C. neoformans ATCC 208821, mean (n = 2), read-out: MIC C. n
Protocol: as §1

Cytotoxicity assay = format: cell-based; conditions: human; HEK293 cells; mean (n = 2); read-out: Cytotoxicity: concentration of compound at 50% cytotoxicity (IC50)
Protocol: Cytotoxicity assays were conducted using the protocols previously reported.

human red blood cells = assay: Hemolytic assay; format: cell-based; conditions: mean (n = 2)
Protocol: Hemolysis assays were conducted using the protocols previously reported.

P. aeruginosa ATCC 27853 = assay: Enhancement of doxycycline action against P. aeruginosa; format: cell-based, Pseudomonas aeruginosa; conditions: doxycycline at 4.5 µM
Protocol: (§2) Antibiotic enhancer concentrations were determined using previously reported protocols.

E. coli ATCC 25922 = assay: Enhancement of erythromycin action against E. coli; format: cell-based, Escherichia coli; conditions: erythromycin at 10.9 µM
Protocol: as §2

| SMILES | MIC [1] [µM] | MIC (MRSA (ATCC 43300)) [µM] | MIC [2] [µM] | MIC [3] [µM] | MIC [4] [µM] | MIC [5] [µM] | MIC [6] [µM] | MIC [7] [µM] | IC50 (Cytotoxicity assay) [µM] | Hemolysis: concentration of compound at 10% hemolytic activity (HC10) (human red blood cells) [µM] | Dox/P. a fold change (ratio between intrinsic MIC of the test compound and combination MIC) (P. aeruginosa ATCC 27853) [fold] | Dox/P. a: concentration required to restore doxycycline activity (combination MIC) (P. aeruginosa ATCC 27853) [µM] | Eryth/E. c: concentration required to restore erythromycin activity (combination MIC) (E. coli ATCC 25922) [µM] |
| --- | --- | --- | --- | --- | --- | --- | --- | --- | --- | --- | --- | --- | --- |
| O=C(Cc1c[nH]c2ccccc12)NCCCNCCCCCCCNCCCNC(=O)Cc1c[nH]c2ccccc12.O=C(O)C(F)(F)F.O=C(O)C(F)(F)F [Compound 14c, N^1,N^7-Bis(3-(2-(1H-indol-3-yl)acetamido)propyl)heptane-1,7-diaminium 2,2,2-trifluoroacetate] | 15.9 | ≤ 0.32 | > 254 | > 254 | > 41 | > 41 | > 41 | ≤ 0.32 | > 41 | 0.72 | 4 | 63.5 | > 254 |
| O=C(Cc1c[nH]c2ccccc12)NCCCNCCCCCCCCNCCCNC(=O)Cc1c[nH]c2ccccc12.O=C(O)C(F)(F)F.O=C(O)C(F)(F)F [Compound 14d, N^1,N^8-Bis(3-(2-(1H-indol-3-yl)acetamido)propyl)octane-1,8-diaminium 2,2,2-trifluoroacetate] | 31.2 | ≤ 0.31 | > 250 | 62.4 | > 40 | > 40 | > 40 | ≤ 0.31 | > 40 | 15.8 | > 1 | 250 | 250 |
| COc1cccc2c(CC(=O)NCCCNCCCCCCCCNCCCNC(=O)Cc3c[nH]c4c(OC)cccc34)c[nH]c12.O=C(O)C(F)(F)F.O=C(O)C(F)(F)F [Compound 19d, N^1,N^8-Bis(3-(2-(7-methoxy-1H-indol-3-yl)acetamido)propyl)octane-1,8-diaminium 2,2,2-trifluoroacetate] | 116 | 37.2 | > 232 | > 232 | – | – | > 37 | ≤ 0.29 | > 37 | >37 | 1 | > 232 | > 232 |
| COc1cccc2c(CC(=O)NCCCNCCCCCCCCCCCCNCCCNC(=O)Cc3c[nH]c4c(OC)cccc34)c[nH]c12.O=C(O)C(F)(F)F.O=C(O)C(F)(F)F [Compound 19f, N^1,N^12-Bis(3-(2-(7-methoxy-1H-indol-3-yl)acetamido)propyl)dodecane-1,12-diaminium 2,2,2-trifluoroacetate] | 13.6 | ≤ 0.27 | > 218 | 109 | – | – | 34.9 | ≤ 0.27 | > 35 | 10.7 | > 1 | 218 | 109 |
| Cc1cccc2c(CC(=O)NCCCNCCCCNCCCNC(=O)Cc3c[nH]c4c(C)cccc34)c[nH]c12.O=C(O)C(F)(F)F.O=C(O)C(F)(F)F [Compound 20a, N^1,N^4-Bis(3-(2-(7-methyl-1H-indol-3-yl)acetamido)propyl)butane-1,4-diaminium 2,2,2-trifluoroacetate] | 32.3 | ≤ 0.32 | > 259 | 259 | – | – | 41.4 | ≤ 0.32 | > 41 | 4.11 | 1 | > 259 | 64.7 |
| Cc1cccc2c(CC(=O)NCCCNCCCCCCNCCCNC(=O)Cc3c[nH]c4c(C)cccc34)c[nH]c12.O=C(O)C(F)(F)F.O=C(O)C(F)(F)F [Compound 20b, N^1,N^6-Bis(3-(2-(7-methyl-1H-indol-3-yl)acetamido)propyl)hexane-1,6-diaminium 2,2,2-trifluoroacetate] | 62.4 | ≤ 0.31 | > 250 | 250 | – | – | 40 | ≤ 0.31 | > 40 | 9.24 | > 1 | 250 | 62.4 |
| Cc1cccc2c(CC(=O)NCCCNCCCCCCCNCCCNC(=O)Cc3c[nH]c4c(C)cccc34)c[nH]c12.O=C(O)C(F)(F)F.O=C(O)C(F)(F)F [Compound 20c, N^1,N^7-Bis(3-(2-(7-methyl-1H-indol-3-yl)acetamido)propyl)heptane-1,7-diaminium 2,2,2-trifluoroacetate] | 3.83 | < 0.2 | > 245 | 245 | > 39 | > 39 | > 39 | < 0.2 | > 39 | – | > 2 | 123 | 123 |
| Cc1cccc2c(CC(=O)NCCCNCCCCCCCCCCNCCCNC(=O)Cc3c[nH]c4c(C)cccc34)c[nH]c12.O=C(O)C(F)(F)F.O=C(O)C(F)(F)F [Compound 20e, N^1,N^10-Bis(3-(2-(7-methyl-1H-indol-3-yl)acetamido)propyl)decane-1,10-diaminium 2,2,2-trifluoroacetate] | 233 | ≤ 0.29 | > 233 | > 233 | – | – | 18.7 | ≤ 0.29 | > 37 | 12.7 | 1 | > 233 | > 233 |
| Cc1cccc2c(CC(=O)NCCCNCCCCCCCCCCCCNCCCNC(=O)Cc3c[nH]c4c(C)cccc34)c[nH]c12.O=C(O)C(F)(F)F.O=C(O)C(F)(F)F [Compound 20f, N^1,N^12-Bis(3-(2-(7-methyl-1H-indol-3-yl)acetamido)propyl)dodecane-1,12-diaminium 2,2,2-trifluoroacetate] | 28.2 | ≤ 0.28 | > 226 | 56.5 | – | – | ≤ 0.28 | ≤ 0.28 | > 36 | ≤0.28 | 1 | > 226 | 28.2 |
